# From article PMC7825493, “Characterization of LDD-2633 as a Novel RET Kinase Inhibitor with Anti-Tumor Effects in Thyroid Cancer” (Pharmaceuticals, 2021)
# Counter-ions that a name gives are not always drawn.
# Target: RET kinase (Homo sapiens, UniProt P07949)
# Assay: HTRF KinEASE-TK (TR-FRET) kinase assay with recombinant RET, […] ATP
# Type: biochemical
# Chain of RET kinase (P07949 29-1114): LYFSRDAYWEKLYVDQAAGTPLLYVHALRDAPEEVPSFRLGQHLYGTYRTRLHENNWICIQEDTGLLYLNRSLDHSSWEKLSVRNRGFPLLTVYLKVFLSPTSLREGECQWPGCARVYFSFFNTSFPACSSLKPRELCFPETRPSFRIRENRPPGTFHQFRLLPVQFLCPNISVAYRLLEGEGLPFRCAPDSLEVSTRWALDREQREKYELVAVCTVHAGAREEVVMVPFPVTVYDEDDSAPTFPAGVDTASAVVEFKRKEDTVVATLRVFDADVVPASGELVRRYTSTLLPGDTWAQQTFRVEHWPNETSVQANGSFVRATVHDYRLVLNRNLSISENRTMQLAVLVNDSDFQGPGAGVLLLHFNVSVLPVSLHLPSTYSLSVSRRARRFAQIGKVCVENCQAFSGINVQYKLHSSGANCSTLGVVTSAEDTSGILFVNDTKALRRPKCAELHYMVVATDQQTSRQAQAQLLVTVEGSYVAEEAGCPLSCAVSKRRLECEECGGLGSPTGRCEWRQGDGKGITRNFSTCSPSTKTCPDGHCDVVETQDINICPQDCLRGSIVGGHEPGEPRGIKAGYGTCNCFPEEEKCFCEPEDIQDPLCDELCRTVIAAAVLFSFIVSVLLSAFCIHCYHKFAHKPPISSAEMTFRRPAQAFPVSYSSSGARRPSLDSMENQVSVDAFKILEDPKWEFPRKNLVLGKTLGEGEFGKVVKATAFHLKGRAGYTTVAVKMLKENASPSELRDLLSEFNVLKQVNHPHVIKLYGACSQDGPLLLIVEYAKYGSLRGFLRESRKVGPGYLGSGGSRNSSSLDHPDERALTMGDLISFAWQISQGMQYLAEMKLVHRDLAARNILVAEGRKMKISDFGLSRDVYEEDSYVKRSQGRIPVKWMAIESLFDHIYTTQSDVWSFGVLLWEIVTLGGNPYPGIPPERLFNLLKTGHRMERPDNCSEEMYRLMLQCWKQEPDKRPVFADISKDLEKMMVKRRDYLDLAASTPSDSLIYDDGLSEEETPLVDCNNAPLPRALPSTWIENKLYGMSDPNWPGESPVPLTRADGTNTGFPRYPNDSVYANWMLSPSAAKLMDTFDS
structure (smiles),measurement,value
"O=C1Nc2ccccc2/C1=C1/Nc2ccccc2/C1=N\OCCN1CCNCC1 [LDD-2633, (2Z,3E)-3-((2-(piperazin-1-yl)ethoxy)imino)-[2,3′-biindolinylidene]-2′-one hydrochloride]",IC50,4.42 nM
